Patent publication US20150292026A1, “METHYLATION MARKERS PREDICTIVE FOR DRUG RESPONSE” (MDxHEALTH SA, priority 2012, published 2015)
Read-outs that look alike come from different tables or passages of the source.

Experiments:
[1] = test system: patients with metastatic CRC; assay: CAIRO arm A: response to single agent irinotecan in second line by DCR1 methylation; type: in vivo, human; conditions: 65 patients from arm A, data not shown
[2] = test system: patients with CRC (CAIROII); conditions: CAIRO II patients, estimate from literature; cited from earlier work
HCT116 cells = assay: Re-expression of DCR1 (qRT-PCR) in HCT116 after inhibition of DNA methyltransferases; type: cell-based, Human; conditions: HCT116 (65% methylated for DCR1), 5000 nM for 3 days, p=0.005
Experimental: To investigate re-expression of DCR1 after inhibition of DNA metyltransferases, HCT116 cells were treated with 5000 nM 5-aza-2′-deoxycytidine for 3 days (DAC, Sigma Chemical Co., St. Louis. Mo., USA).
Total RNA was isolated using TriZoI reagent (Invitrogen, Breda, The Netherlands), and subjected to purification using RNeasy Mini Kit (Qiagen). After DNAse treatment (RQI DNAse, Promega, Leiden, The Netherlands). cDNA was made with the Iscript cDNA Synthesis Kit (BioRad, Veenendaal, The Netherlands). Quantitative RT-PCR was done using TaqMan® Gene Expression Assays from Applied Biosystems directed to DCR1 (Hs00182570_m1) and B2M (Hs00984230_m1). Relative expression levels were determined by calculating the Ct-ratio (Ct ratio=2̂−(Ct DCR1−Ct B2M)).
Student's T-test was used for comparison of DCR1 expression levels before and after DAC and TSA treatment of HCT116.

[3] = test system: patients with metastatic CRC; conditions: first-line therapy, discovery set; for HR (methylated vs unmethylated): PFS

## CCc1c2c(nc3ccc(OC(=O)N4CCC(N5CCCCC5)CC4)cc13)-c1cc3c(c(=O)n1C2)COC(=O)[C@]3(O)CC [irinotecan, Irinotecan]
[1]
  association of DCR1 methylation with response to single agent second-line therapy: a similar trend was observed, although not statistically significant

## bevacuzimab: targeted therapy directed against VEGF
[2]
  survival benefit from bevacizumab: about two

## Nc1ncn([C@H]2C[C@H](O)[C@@H](CO)O2)c(=O)n1 [5-aza-2′-deoxycytidine]
HCT116 cells
  DCR1 expression (qRT-PCR) after treatment: significant increased DCR1 expression

## CCCCCOC(=O)Nc1nc(=O)n([C@@H]2O[C@H](C)[C@@H](O)[C@H]2O)cc1F [Capecitabine]
[3]; BK methylation
  HR (methylated vs unmethylated): 1.1
[3]; CAT methylation
  HR (methylated vs unmethylated): 0.9
[3]; CCND2 methylation
  HR (methylated vs unmethylated): 1.3
[3]; CDK5 methylation
  HR (methylated vs unmethylated): 0.7
[3]; DAPK1 methylation
  HR (methylated vs unmethylated): 1.0
[3]; DCR1 methylation
  HR (methylated vs unmethylated): 1.4
[3]; EEF1A2 (1 assay methylation)
  HR (methylated vs unmethylated): 1.2
[3]; EEF1A2 (2 assay methylation)
  HR (methylated vs unmethylated): 1.3
[3]; HOXA9 methylation
  HR (methylated vs unmethylated): 0.8
[3]; IRAK1 methylation
  HR (methylated vs unmethylated): 1.6
[3]; LIG4 methylation
  HR (methylated vs unmethylated): 1.2
[3]; NUDT1 methylation
  HR (methylated vs unmethylated): 1.5
[3]; PAX3 (1) assay methylation
  HR (methylated vs unmethylated): 1.2
[3]; PAX3 (2) assay methylation
  HR (methylated vs unmethylated): 1.3
[3]; PRKCB1 methylation
  HR (methylated vs unmethylated): 1.1
[3]; PROK2 methylation
  HR (methylated vs unmethylated): 0.8
[3]; PROP1 methylation
  HR (methylated vs unmethylated): 2.0
[3]; PTGS2 methylation
  HR (methylated vs unmethylated): 1.1
[3]; RASSF1 methylation
  HR (methylated vs unmethylated): 1.2
[3]; RBBP8 methylation
  HR (methylated vs unmethylated): 0.9
[3]; RHOB methylation
  HR (methylated vs unmethylated): 0.7
[3]; SPO11 methylation
  HR (methylated vs unmethylated): 1.4
[3]; TBX5 methylation
  HR (methylated vs unmethylated): 2.3
[3]; TIPARP methylation
  HR (methylated vs unmethylated): 0.9
[3]; BK methylated (M) tumours
  Median PFS: 149 days
[3]; BK unmethylated (U) tumours
  Median PFS: 188 days
[3]; CAT methylated (M) tumours
  Median PFS: 116 days
[3]; CAT unmethylated (U) tumours
  Median PFS: 190 days
[3]; CCND2 methylated (M) tumours
  Median PFS: 202 days
[3]; CCND2 unmethylated (U) tumours
  Median PFS: 156 days
[3]; CDK5 methylated (M) tumours
  Median PFS: 125 days
[3]; CDK5 unmethylated (U) tumours
  Median PFS: 191 days
[3]; DAPK1 methylated (M) tumours
  Median PFS: 144 days
[3]; DAPK1 unmethylated (U) tumours
  Median PFS: 188 days
[3]; DCR1 methylated (M) tumours
  Median PFS: 184 days
[3]; DCR1 unmethylated (U) tumours
  Median PFS: 178 days
[3]; EEF1A2 (1 assay methylated (M) tumours)
  Median PFS: 202 days
[3]; EEF1A2 (1 assay unmethylated (U) tumours)
  Median PFS: 168 days
[3]; EEF1A2 (2 assay methylated (M) tumours)
  Median PFS: 246 days
[3]; EEF1A2 (2 assay unmethylated (U) tumours)
  Median PFS: 177 days
[3]; HOXA9 methylated (M) tumours
  Median PFS: 168 days
[3]; HOXA9 unmethylated (U) tumours
  Median PFS: 191 days
[3]; IRAK1 methylated (M) tumours
  Median PFS: 216 days
[3]; IRAK1 unmethylated (U) tumours
  Median PFS: 130 days
[3]; LIG4 methylated (M) tumours
  Median PFS: 173 days
[3]; LIG4 unmethylated (U) tumours
  Median PFS: 190 days
[3]; NUDT1 methylated (M) tumours
  Median PFS: 187 days
[3]; NUDT1 unmethylated (U) tumours
  Median PFS: 99 days
[3]; PAX3 (1) assay methylated (M) tumours
  Median PFS: 189 days
[3]; PAX3 (1) assay unmethylated (U) tumours
  Median PFS: 126 days
[3]; PAX3 (2) assay methylated (M) tumours
  Median PFS: 187 days
[3]; PAX3 (2) assay unmethylated (U) tumours
  Median PFS: 127 days
[3]; PRKCB1 methylated (M) tumours
  Median PFS: 192 days
[3]; PRKCB1 unmethylated (U) tumours
  Median PFS: 168 days
[3]; PROK2 methylated (M) tumours
  Median PFS: 182 days
[3]; PROK2 unmethylated (U) tumours
  Median PFS: 179 days
[3]; PROP1 methylated (M) tumours
  Median PFS: 188 days
[3]; PROP1 unmethylated (U) tumours
  Median PFS: 99 days
[3]; PTGS2 methylated (M) tumours
  Median PFS: 202 days
[3]; PTGS2 unmethylated (U) tumours
  Median PFS: 168 days
[3]; RASSF1 methylated (M) tumours
  Median PFS: 209 days
[3]; RASSF1 unmethylated (U) tumours
  Median PFS: 164 days
[3]; RBBP8 methylated (M) tumours
  Median PFS: 191 days
[3]; RBBP8 unmethylated (U) tumours
  Median PFS: 177 days
[3]; RHOB methylated (M) tumours
  Median PFS: 112 days
[3]; RHOB unmethylated (U) tumours
  Median PFS: 188 days
[3]; SPO11 methylated (M) tumours
  Median PFS: 177 days
[3]; SPO11 unmethylated (U) tumours
  Median PFS: 190 days
[3]; TBX5 methylated (M) tumours
  Median PFS: 188 days
[3]; TBX5 unmethylated (U) tumours
  Median PFS: 65 days
[3]; TIPARP methylated (M) tumours
  Median PFS: 177 days
[3]; TIPARP unmethylated (U) tumours
  Median PFS: 187 days
